Test results as given in patent US20260157984A1, “CERAMIDE COMPOSITION” (GENUINE R&D CO., LTD., priority 2021, published 2026).

Tested on: HaCaT cells
Experiment: Measurement of mitochondrial activity by IN Cell Analyzer 2200 in HaCaT cells
Format: cell-based, human
Conditions: HaCaT cells treated with ceramides 48 hours, 5 μM, FIG. 1
Method: A human epidermal keratinocyte cell line, i.e., HaCaT cells, was used as a human skin cell model. The cells were subcultured in a cell culture dish (Greiner Bio-One Co., Ltd., Tokyo, Japan) at 37° C. in the presence of 5% CO2 by using DMEM medium (Dulbecco's Modified Eagle Medium, Nissui, Tokyo, Japan) containing 10% inactivated fetal bovine serum (FBS, Life Technologies Corporation, CA, USA). […]
HaCaT cells were seeded in a 96-well plate at a density of 6.0×10^4 cells/mL and precultured for 24 hours. […] Thereafter, the diluted Hoechst […] solution was removed from the 96-well plate, […] of PBS was added, and the fluorescence was detected using an IN Cell Analyzer 2200 (GE Healthcare). By measuring the amounts of fluorescence of MitoTracker Red, MitoTracker Green, and Hoechst 33342, the mitochondrial activity, number, and area in the cells were examined. The images were analyzed using IN Cell Investigator High-content image analysis software (GE Healthcare).
The mitochondrial number and area (MitoTracker Green), as well as the mitochondrial membrane potential activity (MitoTracker Red), per cell were measured using an IN Cell Analyzer 2200 in HaCaT cells treated with ceramides for 48 hours.

SMILES: CCCCCCCCCCCCCCCCCC(=O)N[C@@H](CO)[C@H](O)CCCCCCCCCCCCCCC [synthetic ceramide, ceramide NG]
- mitochondrial number per cell (MitoTracker Green): significantly increased
